Data as given in US8513202B2, “Crystalline form of 1-(β-D-glucopyranosyl)-4-methyl-3-[5-(4-fluorophenyl)-2-thienylmethyl]benzene hemihydrate” (Mitsubishi Tanabe Pharma Corporation, priority 2006, dated 2013).

Experiment: stability of the crystalline form compared with the amorphous form
Type: physicochemical
Conditions: compared with the amorphous form of the compound of formula (I); test conditions not given

**Q.** For `Cc1ccc([C@@H]2O[C@H](CO)[C@@H](O)[C@H](O)[C@H]2O)cc1Cc1ccc(-c2ccc(F)cc2)s1` [1-(β-D-glucopyranosyl)-4-methyl-3-[5-(4-fluorophenyl)-2-thienylmethyl]benzene hemihydrate], which stability is on record?
**A.** Its stability is “more stable than the amorphous form”.
